No end group written: not given here.
What was measured:
[1] = tested on: Pseudomonas aeruginosa ATCC 9027; assay: Antimicrobial assay I, MIC by OD measurement; format: cell-based; conditions: 37° C. for 24 hours, absorbance 620 nm
[2] = tested on: Staphylococcus aureus ATCC 6538; assay: Antimicrobial assay I, MIC by OD measurement; format: cell-based; conditions: 37° C. for 24 hours, absorbance 620 nm
[3] = tested on: yeast (Saccharomyces cerevisiae); assay: Antimicrobial assay I, yeast assay in RPMI 1640; format: cell-based; conditions: RPMI 1640 media
BMKC = assay: Anti-cancer assay, MTT, LD50; format: cell-based; conditions: BMKC cloned melanoma line, 24 hours with peptide
Text: (§1) Numbers are LD50 values (μg/mL).

H1299 = assay: Anti-cancer assay, MTT, LD50; format: cell-based; conditions: 24 hours with peptide, lung large cell carcinoma
Text: as §1

HeLaS3 = assay: Anti-cancer assay, MTT, LD50; format: cell-based; conditions: 24 hours with peptide, cervical carcinoma
Text: as §1

MCF7 = assay: Anti-cancer assay, MTT, LD50; format: cell-based; conditions: MCF7 breast adenocarcinoma line, MTT, 24 hours with peptide
Text: as §1

PC3 = assay: Anti-cancer assay, MTT, LD50; format: cell-based; conditions: 24 hours with peptide, prostate adenocarcinoma
Text: as §1

SW480 = assay: Anti-cancer assay, MTT, LD50; format: cell-based; conditions: SW480 colon adenocarcinoma line, 24 hours with peptide
Text: as §1

[4] = tested on: human red blood cells (RBC); assay: in vitro; format: cell-based; conditions: for LD50: hemolytic assay, concentration at 50% hemolysis, 1 hour at 37° C.
WI38 = conditions: MTT, 24 hours with peptide; normal fibroblast line
in vitro = conditions: human, WI38 normal lung fibroblast cells, LD50 WI38, WI38 normal lung fibroblast line, MTT, 24 hours with peptide
[5] = tested on: human leukocyte (WBC) cells; assay: Stimulation and proliferation of leukocytes, Alamar Blue; format: cell-based; conditions: 48 hours
Experimental: In vitro viability of human leukocyte cells in the presence of different peptides at different concentrations was determined by an Alamar Blue protocol. Alamar Blue (Promega, Madison, Wis.) is an indicator dye, formulated to measure quantitatively the proliferation and cytotoxicity of the cells. The dye consists of an oxidation-reduction (redox) indicator that yields a calorimetric change and a fluorescent signal in response to cellular metabolic activity.
Assay protocol: Blood from a human was drawn and centrifuged at 1500 rpm for 15 minutes at room temperature. The buffy coat cells at the plasma-red blood cell interface were aspirated. Buffy coat cells (mainly lymphocyte cells) were then transferred into 15 ml centrifuge tubes containing 5 ml of RPMI-1640 medium+10% Fetal Bovine Serum (Gibco, Grand Island, N.Y.). Additional medium was added to the tubes to bring the volume up to 10 ml. The buffy coat suspension was then carefully layered on 5 ml of Histopaque (Sigma Chemical Co., St. Louis, Mo.) and centrifuged at 1500 rpm for 30 minutes at room temperature. The interface which is mostly PBMCs (peripheral mononuclear cells) was aspirated and transferred to a 15 ml conical centrifuge tube and, resuspended in 2 ml cold RPMI-1640 and brought up to 15 ml with cold RPMI-1640 medium. Cells were centrifuged at 1500 rpm for 10 minutes. The supernatant was then aspirated and discarded. The cell pellet was re-suspended in 1 ml of cold RPMI 1640 and brought up to 15 ml with RPMI medium. This step was repeated twice, except that in the last step, the cells were resuspended with 1 ml of cold RPMI-1640 medium and cell counts were performed with a hemocytometer according to the Sigma cell culture catalogue.
Pokewood mitogen was used as a control along with positive and negative controls. Negative control cells were killed with 70% methanol. Positive (+) control cells were incubated in RPMI medium (untreated). […] of AlamarBlue was added to the cells, and readings were taken after 24 hours, 48 hours, 72 hours, and 96 hours using a fluorimeter (excitation 544/transmission 590 nm).
Calculations were performed using the following formula. The peptide treated sample and positive control were adjusted for negative control. [formula]
Using the protocol described immediately above, about 100-150 peptides were screened for their stimulatory and/or inhibitory actions upon the growth of human leukocyte (“WBC”) cells as compared to the growth of untreated positive control cells.
The Alamar Blue stain used in the protocol permeates both cell and nuclear membranes, and is metabolized in the mitochondria to cause the change in color. The resulting fluorometric response is therefore a result of total mitochondrial activity caused by cell stimulation and/or mitosis (cell proliferation).

Substance	paerug9027 (MIC) [1]	staph6538 (MIC) [2]	yeast (MIC or MFC) [3]	LD50 BMKC (BMKC)	H1299 LD50 (H1299)	HeLaS3 LD50 (HeLaS3)	LD50 MCF7 (MCF7)	PC3 LD50 (PC3)	LD50 SW480 (SW480)	LD50 [4]	WI38 LD50 (WI38)	CC50 at 24 h (in vitro)	Peptide treated cell activity Percent stimulation relative to control ([5]; 0.1 ug/ml)	Peptide treated cell activity Percent stimulation relative to control ([5]; 1 ug/ml)	Peptide treated cell activity Percent stimulation relative to control ([5]; 10 ug/ml)	Peptide treated cell activity Percent stimulation relative to control ([5]; 100 ug/ml)	Peptide treated cell activity Percent stimulation relative to control ([5]; 500 ug/ml)	Peptide toxicity RBC LD/50 ([4]; human red blood cells)
FAKIIAKIAKIAKKIL-NH2 [P139]	25 µg/mL	50 µg/mL	200 µg/mL	525 µg/mL	850 µg/mL	> (> indicates greater than 1000)	625 µg/mL	> (> indicates greater than 1000)	> (> indicates greater than 1000)	> (> indicates greater than 1000)	550 µg/mL	550 µg/mL						
FAKKLAKKLAKAAL-NH2 [P76, FAKKLAKKLAKAAL-NH2]	100 µg/mL	10 µg/mL	200 µg/mL	750 µg/mL	860 µg/mL	380 µg/mL	970 µg/mL	675 µg/mL	400 µg/mL	> (> indicates greater than 1000)	445 µg/mL	445 µg/mL						
FAKLA-NH2 [P128, FAKLA-NH2]	100 µg/mL	> (> indicates greater than 200 μg/mL)	200 µg/mL	330 µg/mL	> (> indicates greater than 1000)	700 µg/mL	500 µg/mL	> (> indicates greater than 1000)	530 µg/mL	> (> indicates greater than 1000)	500 µg/mL	500 µg/mL						
FAKLAKKALAKLL-NH2 [P148]	200 µg/mL	> (> indicates greater than 200 μg/mL)	200 µg/mL	330 µg/mL	660 µg/mL	> (> indicates greater than 1000)	315 µg/mL	> (> indicates greater than 1000)	> (> indicates greater than 1000)	> (> indicates greater than 1000)	380 µg/mL	380 µg/mL						
FAKLFAKLAKKFAL-NH2 [P121, FAKLFAKLAKKFAL-NH2]	> (> indicates greater than 200 μg/mL)	50 µg/mL	100 µg/mL	670 µg/mL	460 µg/mL	830 µg/mL	400 µg/mL	> (> indicates greater than 1000)	800 µg/mL	> (> indicates greater than 1000)	625 µg/mL	625 µg/mL						
FAKLLAKKLL-NH2 [P57]	200 µg/mL	100 µg/mL	200 µg/mL	740 µg/mL	> (> indicates greater than 1000)	830 µg/mL	> (> indicates greater than 1000)	> (> indicates greater than 1000)	740 µg/mL	> (> indicates greater than 1000)	900 µg/mL	900 µg/mL						
FAKLLAKLAKAKA-NH2 [P95]	200 µg/mL	100 µg/mL	> (> indicates greater than 200 μg/mL)	820 µg/mL	> (> indicates greater than 1000)	> (> indicates greater than 1000)	> (> indicates greater than 1000)	> (> indicates greater than 1000)	> (> indicates greater than 1000)	> (> indicates greater than 1000)	250 µg/mL	250 µg/mL						
FAKLLAKLAKKFAL-NH2 [P120, FAKLLAKLAKKFAL-NH2]	200 µg/mL	50 µg/mL	200 µg/mL	660 µg/mL	620 µg/mL	810 µg/mL	730 µg/mL	> (> indicates greater than 1000)	630 µg/mL	> (> indicates greater than 1000)	600 µg/mL	600 µg/mL						
FAKLLAKLAKKSL-NH2 [P127]	25 µg/mL	100 µg/mL	100 µg/mL	535 µg/mL	770 µg/mL	610 µg/mL	440 µg/mL	> (> indicates greater than 1000)	400 µg/mL	> (> indicates greater than 1000)	760 µg/mL	760 µg/mL						
FAKLLALALKKAL-NH2 [compound 165]													107%	109%	106%	27%	22%	350
FAKLLFKALKKAL-NH2 [P112, FAKLLFKALKKAL-NH2]	200 µg/mL	50 µg/mL	100 µg/mL	445 µg/mL	470 µg/mL	660 µg/mL	500 µg/mL	640 µg/mL	800 µg/mL	> (> indicates greater than 1000)	420 µg/mL	420 µg/mL						
FALALKLAKKL-NH2 [P178]	100 µg/mL	200 µg/mL	> (> indicates greater than 200 μg/mL)	640 µg/mL	> (> indicates greater than 1000)	> (> indicates greater than 1000)	770 µg/mL	> (> indicates greater than 1000)	> (> indicates greater than 1000)	> (> indicates greater than 1000)	405 µg/mL	405 µg/mL						
FALALKLKKL-NH2 [P181]	200 µg/mL	100 µg/mL	100 µg/mL	830 µg/mL	> (> indicates greater than 1000)	> (> indicates greater than 1000)	550 µg/mL	> (> indicates greater than 1000)	870 µg/mL	> (> indicates greater than 1000)	500 µg/mL	500 µg/mL						
VALALKALKKL-NH2 [P180]	> (> indicates greater than 200 μg/mL)	200 µg/mL	> (> indicates greater than 200 μg/mL)	770 µg/mL	> (> indicates greater than 1000)	760 µg/mL	950 µg/mL	> (> indicates greater than 1000)	600 µg/mL	> (> indicates greater than 1000)	940 µg/mL	940 µg/mL						
